Values joined by “and” are separate entries in the source; they are usually repeats but may differ in a detail not shown here. Equal entries are not always repeated. Structures can show the parent of a compound that is named as a salt.
Experiments:
GST-LSD1 [1] = molecular target: T1, GST-LSD1 (Homo sapiens, UniProt O60341); details: for k(inact) / KI (inactivation): GST-LSD1, peroxidase-coupled assay; for k(inact)/Ki(inact): GST-LSD1 inactivation efficiency; for KI (inactivation): extrapolated to zero substrate; for LSD1 inhibitory potency (in words): structure-activity comment on Table 1
LNCaP cells = experiment: Drug combination experiments with bizine ([3H] thymidine, Combination Index); assay type: cell-based; details: binary combination with bizine, 48 h, 3H-thymidine incorporation
GST-LSD1 [2] = molecular target: T1, GST-LSD1; experiment: biochemical
H3K4Me2 in LNCaP cells = experiment: Western blot of histone H3 marks in LNCaP cells; assay type: cell-based; details: 48 h, concentrations up to 40 M
[3] = tested on: Immature primary cortical neurons; experiment: Oxidative toxicity (HCA) and neuron viability assay (MTT); assay type: cell-based, Sprague Dawley rats; details: 10 M phenelzine compared with 0.5 μM bizine

Row | Structure (SMILES) | k(inact) (GST-LSD1 [1]) | k(inact)/Ki(inact) (GST-LSD1 [1]) | other results
1 | NNCCc1ccc(NC(=O)CCCc2ccc(Cl)cc2)cc1.O=S(=O)(O)O [Compound 12f, 4-(4-Chlorophenyl)-N-[4-(2-hydrazinylethyl)phenyl]butanamide sulfate] | 0.17 ± 0.018 min⁻¹ | 18300 ± 5830 M⁻¹ s⁻¹ | 
2 | Nc1ccccc1NC(=O)c1ccc(CNC(=O)OCc2cccnc2)cc1 [MS-275] |  |  | effect of combination with bizine on cell inhibition (in words) (LNCaP cells): additive to synergistic effects
3 | CNNCCCc1ccc(OC)cc1 [Compound 9f, 1-[3-(4-Methoxyphenyl)propyl]-2-methylhydrazine dihydrochloride] |  |  | IC50 (GST-LSD1 [2]): > 100000 nM
4 | NNCCc1ccc(NC(=O)CCc2c[nH]c3ccccc23)cc1.O=S(=O)(O)O [Compound 15a, N-[4-(2-Hydrazinylethyl)phenyl]-3-(1H-indol-3-yl)propanamide sulfate] | 0.21 ± 0.030 min⁻¹ | 16700 ± 6830 M⁻¹ s⁻¹ | 
5 | NNCCc1ccc(NC(=O)/C=C/c2ccccc2)cc1.O=S(=O)(O)O [Compound 13, (2E)-N-[4-(2-Hydrazinylethyl)phenyl]-3-phenylprop-2-enamide sulfate] | 0.17 ± 0.21 min⁻¹ | 28300 ± 11300 M⁻¹ s⁻¹ | LSD1 inhibitory potency (in words) (GST-LSD1 [1]): reduced LSD1 inhibitory potency
6 | NNCCc1ccc(NC(=O)CCc2ccccc2)cc1.O=S(=O)(O)O [Compound 12c, N-[4-(2-Hydrazinylethyl)phenyl]-3-phenylpropanamide sulfate] | 0.24 ± 0.022 min⁻¹ | 15300 ± 3670 M⁻¹ s⁻¹ | 
7 | NNCCCc1ccc(OCc2ccccc2)cc1 [Compound 14, {3-[4-(Benxyloxy)phenyl]propyl}hydrazine] | 0.18 ± 0.038 min⁻¹ | 3330 ± 1830 M⁻¹ s⁻¹ | KI (inactivation) (GST-LSD1 [1]): 900 ± 450 nM; LSD1 inhibitory potency (in words) (GST-LSD1 [1]): reduced LSD1 inhibitory potency
8 | CN(C)NCCc1ccccc1 [Compound 9b, 1,1-Dimethyl-2-(2-phenylethyl)hydrazine] |  |  | IC50 (GST-LSD1 [2]): > 100000 nM
9 | NNCCCN1CCOCC1 [Compound 11, 4-(3-Hydrazinylpropyl) morpholine, reference compound] |  |  | LSD1 inhibitory potency (in words) (GST-LSD1 [1]): not compatible with LSD1 inhibition; IC50 (GST-LSD1 [2]): > 100000 nM
10 | COc1ccc(CCCC(=O)Nc2ccc(CCNN)cc2)cc1.O=S(=O)(O)O [Compound 12h, N-[4-(2-Hydrazinylethyl)phenyl]-4-(4-methoxyphenyl)butanamide sulfate] | 0.26 ± 0.042 min⁻¹ | 20000 ± 9500 M⁻¹ s⁻¹ | KI (inactivation) (GST-LSD1 [1]): 207 ± 89 nM
11 | Cc1[nH]c2ccccc2c1CCNCc1ccc(/C=C/C(=O)NO)cc1 [LBH-589] |  |  | effect of combination with bizine on cell inhibition (in words) (LNCaP cells): additive to synergistic effects
12 | Cl.Cl.NNCCCc1ccccc1 [Compound 9c, (3-Phenylpropyl)hydrazine dihydrochloride] | 0.32 ± 0.010 min⁻¹ |  | 
13 | NNCCc1ccc(NC(=O)CCCc2ccc([N+](=O)[O-])cc2)cc1.O=S(=O)(O)O [Compound 12i, N-[4-(2-Hydrazinylethyl)phenyl]-4-(4-nitrophenyl)butanamide sulfate] | 0.21 ± 0.024 min⁻¹ | 12300 ± 3670 M⁻¹ s⁻¹ | 
14 | Cl.Cl.NNCCCCc1ccccc1 [Compound 9h, (4-Phenylbutyl)hydrazine dihydrochloride] | 0.12 ± 0.01 min⁻¹ | 91.7 ± 14.5 M⁻¹ s⁻¹ | 
15 | NNCCc1ccccc1 [phenelzine, reference compound] | 0.35 min⁻¹ and 0.35 ± 0.056 min⁻¹ |  | H3K4Me2 changes (H3K4Me2 in LNCaP cells): did not induce H3K4Me2 changes; neuroprotection after HCA-treatment [3]: comparable
16 | COc1ccc(CCCNN)cc1.Cl.Cl [Compound 9e, [3-(4-Methoxyphenyl)propyl]hydrazine dihydrochloride] | 0.15 ± 0.023 min⁻¹ | 317 ± 145 M⁻¹ s⁻¹ | LSD1 inhibitory potency (in words) (GST-LSD1 [1]): made little difference

Continued, in another order:

Row | k(inact) (GST-LSD1 [1]) | k(inact)/Ki(inact) (GST-LSD1 [1]) | Structure (SMILES) | other results
17 | 0.24 ± 0.033 min⁻¹ | 2000 ± 750 M⁻¹ s⁻¹ | CN(C(=O)CCCc1ccccc1)c1ccc(CCNN)cc1.O=C(O)C(=O)O [Compound 12l, N-[4-(2-Hydrazinylethyl)phenyl]-N-methyl-4-phenylbutanamide oxalate] | 
18 | 0.18 ± 0.034 min⁻¹ | 14700 ± 7670 M⁻¹ s⁻¹ | CS(=O)(=O)Oc1ccccc1CCC(=O)Nc1ccc(CCNN)cc1.O=C(O)C(=O)O [Compound 12j, 2-(3-{[4-(2-Hydrazinylethyl)phenyl]amino}-3-oxopropyl)phenyl methanesulfonate oxalate] | KI (inactivation) (GST-LSD1 [1]): 204 ± 98 nM
19 | 0.15 ± 0.010 min⁻¹ | 56.7 ± 13.2 M⁻¹ s⁻¹ | Cl.Cl.NNCCOc1ccccc1 [Compound 10a, (2-Phenoxyethyl)hydrazine dihydrochloride] | 
20 | 0.22 ± 0.038 min⁻¹ | 14300 ± 6500 M⁻¹ s⁻¹ | NNCCc1ccc(NC(=O)CCCCc2ccccc2)cc1.O=C(O)C(=O)O [Compound 12e, N-[4-(2-Hydrazinylethyl)phenyl]-5-phenylpentanamide oxalate] | 
21 | 0.19 ± 0.036 min⁻¹ | 11700 ± 5170 M⁻¹ s⁻¹ | Cl.Cl.NNCCc1ccc(NC(=O)c2ccccc2)cc1 [Compound 12a, N-[4-(2-Hydrazinylethyl)phenyl]benzamide dihydrochloride] | 
22 | 0.20 ± 0.0087 min⁻¹ | 9000 ± 900 M⁻¹ s⁻¹ | Cl.Cl.NNCCc1ccc(NC(=O)Cc2ccccc2)cc1 [Compound 12b, N-[4-(2-Hydrazinylethyl)phenyl]-2-phenylacetamide dihydrochloride] | 
23 | 0.22 ± 0.020 min⁻¹ | 300 ± 60 M⁻¹ s⁻¹ | Cl.Cl.NNCCCOc1ccccc1 [Compound 10b, (3-Phenoxypropyl)hydrazine dihydrochloride] | 
24 | 0.17 ± 0.020 min⁻¹ | 12700 ± 4000 M⁻¹ s⁻¹ | CS(=O)(=O)Oc1cccc(CCC(=O)Nc2ccc(CCNN)cc2)c1.O=C(O)C(=O)O [Compound 12k, 3-(3-{[4-(2-Hydrazinylethyl)phenyl]amino}-3-oxopropyl)phenyl methanesulfonate oxalate] | KI (inactivation) (GST-LSD1 [1]): 223 ± 64 nM
25 | 0.22 ± 0.025 min⁻¹ | 2330 ± 733 M⁻¹ s⁻¹ | NNCCc1ccc(N(Cc2ccccc2)C(=O)CCCc2ccccc2)cc1.O=C(O)C(=O)O [Compound 12m, N-Benzyl-N-[4-(2-hydrazinylethyl)phenyl]-4-phenylbutanamide oxalate] | 

Source: patent US20170029366A1, “INHIBITORS OF HISTONE LYSINE SPECIFIC DEMETHYLASE (LSD1) AND HISTONE DEACETYLASES (HDACS)” (THE JOHNS HOPKINS UNIVERSITY, priority 2014, published 2017)
